Laboratory results reported in patent US20240317727A1 (Duke University, priority 2018, published 2024).

Molecular target: T1, recombinant HSF1 DNA-binding domain (DBD) (Homo sapiens, UniProt Q00613)
T1 sequence (Q00613 15-120): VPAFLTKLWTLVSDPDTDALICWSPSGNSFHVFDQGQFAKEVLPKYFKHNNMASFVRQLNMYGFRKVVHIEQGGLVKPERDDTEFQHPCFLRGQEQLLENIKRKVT
Assay: Differential Scanning Fluorimetry (DSF), HSF1 DBD melting temperature
Details: 5 μM HSF1 DBD, 25PM Compound, positive = stabilizes, negative = destabilizes HSF1

Compound	ΔTm at 25 µM (Table 3)	ΔTm at 25 µM (Table 1)	further results
O=C(Nc1ccc(F)cc1)Nc1ccc(Cl)nc1 [Compound 090, 1-(6-chloro-3-pyridyl)-3-(4-fluorophenyl) urea]	0.67 °C		
N#CN=C(Nc1ccc(F)cc1)Nc1ccc(Cl)c([N+](=O)[O-])c1 [Compound 047, 1-(4-chloro-3-nitro-phenyl)-2-cyano-3-(4-fluorophenyl)guanidine]	0.75 °C		
O=C(Nc1cccc(F)c1)Nc1ccc(Cl)c([N+](=O)[O-])c1 [Compound 020, 1-(4-chloro-3-nitrophenyl)-3-(3-fluorophenyl)urea]	5.2 °C		
COc1ccc(NC(=O)Nc2ccc(Cl)cc2)cc1 [Compound 0036, 1-(4-chlorophenyl)-3-(4-methoxyphenyl)urea]		2.61 °C	
Cc1ccc(NC(=O)Nc2ccc(Cl)cc2)cc1 [Compound 0113, 1-(4-chlorophenyl)-3-(p-tolyl)urea]		2.28 °C	
O=C(Nc1ccccc1)Nc1cccc(Cl)c1 [Compound 091, 1-(3-chlorophenyl)-3-phenylurea]	2.5 °C		
O=c1c(Nc2ccc(F)c(F)c2)c(Nc2ccc(Cl)c(C(F)(F)F)c2)c1=O [Compound 0092, 3-[4-chloro-3-(trifluoromethyl)anilino]-4-(3,4-difluoroanilino)cyclobut-3-ene-1,2-dione]		2.33 °C	
Cc1cccc(NC(=O)Nc2cccc([N+](=O)[O-])c2)c1 [Compound 0067, 1-(3-nitrophenyl)-3-(m-tolyl)urea]		4 °C	
O=C(Nc1ccccc1)Nc1ccc(Cl)c(Cl)c1 [Compound 022, 1-(3,4-dichlorophenyl)-3-phenylurea]	2.78 °C		
Cc1ccc(NC(=O)Nc2ccc(Br)c(C(F)(F)F)c2)cc1 [Compound 075, 1-(4-bromo-3-(trifluoromethyl)phenyl)-3-(p-tolyl)urea]	2.61 °C		
Cc1ccc(NC(=O)Nc2cccc([N+](=O)[O-])c2)cc1 [Compound 0110, 1-(3-nitrophenyl)-3-(p-tolyl)urea]		2.94 °C	
CSc1sc(NC(=O)Nc2cccc(C(F)(F)F)c2)cc1C#N [Compound 0065]		4.44 °C	
O=C(Nc1ccc(Cl)cc1)Nc1cccc([N+](=O)[O-])c1 [Compound 0049, 1-(4-chlorophenyl)-3-(3-nitrophenyl)urea]		3.11 °C	
O=C(Nc1ccccc1)Nc1ccc(OC(F)(F)F)cc1 [Compound 0085]		3.26 °C	
O=C(Nc1ccc(F)cc1)Nc1cccc(C(F)(F)F)c1 [Compound 0003, 1-(4-fluorophenyl)-3-(3-(trifluoromethyl)phenyl)urea]		1.78 °C	
Cc1cccc(NC(=O)Nc2cccc([N+](=O)[O-])c2)c1 [Compound 067, 1-(3-nitrophenyl)-3-(m-tolyl)urea]	4 °C		
Oc1ccccc1/C=N/NC(=S)Nc1cccc(Cl)c1 [Compound 0015]		3.44 °C	
O=C(Nc1ccc(Cl)cc1)Nc1ccc(Cl)c([N+](=O)[O-])c1 [Compound 0048, 1-(4-chloro-3-nitrophenyl)-3-(4-chlorophenyl)urea]		2.61 °C	
N=C(N)NC(=O)c1nc(Cl)c(N)nc1N [Compound 0053]		-10.1 °C	
O=C(Nc1cccc(Cl)c1)O/N=C/c1ccc(F)cc1 [Compound 0045]			ΔTm (Table 1): −8.21
CC(NC(=O)CSc1nnc(-c2ccccc2O)n1-c1ccccc1)c1ccccc1 (stereo not shown) [Compound 0052]		-11 °C	

Compound	ΔTm at 25 µM (Table 3)	ΔTm at 25 µM (Table 1)	further results
CN(C(=O)Nc1ccc(Cl)c([N+](=O)[O-])c1)c1ccc(F)cc1 [Compound 023, 3-(4-chloro-3-nitro-phenyl)-1-(4-fluorophenyl)-1-methyl-urea]	0.67 °C		
Cc1cccc(NC(=O)Nc2cccc(Cl)c2)c1 [Compound 006, 1-(3-chlorophenyl)-3-(m-tolyl)urea]	2.5 °C		
Oc1ccc(Cl)cc1/C=N/Nc1cccc(C(F)(F)F)c1 [Compound 0024]		4.44 °C	
O=C(Nc1ccc(F)cc1)Nc1ccc2nonc2c1 [Compound 027, 1-(2,1,3-benzoxadiazol-5-yl)-3-(4-fluorophenyl)urea]	2.8 °C		
N#Cc1cc(NC(=O)Nc2ccc(F)cc2)ccc1Cl [Compound 083, 1-(4-chloro-3-cyano-phenyl)-3-(4-fluorophenyl) urea]	2 °C		
O=C(Nc1ccc(F)cc1)Nc1ccc(Cl)cc1 [Compound 096, 1-(4-chlorophenyl)-3-(4-fluorophenyl)urea]	2.61 °C		
O=S1(=O)N=C(Nc2ccc(F)cc2)C(Nc2ccc(Cl)c(C(F)(F)F)c2)=N1 [Compound 033, N3-[4-chloro-3-(trifluoromethyl)phenyl]-N4-(4-fluorophenyl)-1,1-dioxo-1,2,5-thiadiazole-3,4-diamine]	1.9 °C		
O=C(Nc1ccc(Cl)cc1)Nc1ccc(Cl)cc1 [Compound 018, 1,3-bis(4-chlorophenyl)urea]	2.44 °C		
O=[N+]([O-])c1cc(NC2=NS(=O)(=O)N=C2Nc2ccc(F)cc2)ccc1Cl [Compound 0080, N3-(4-chloro-3-nitro-phenyl)-N4-(4-fluorophenyl)-1,1-dioxo-1,2,5-thiadiazole-3,4-diamine]		1.6 °C	
Cc1ccc(NC(=O)Nc2cccc(Cl)c2)cc1 [Compound 068, 1-(3-chlorophenyl)-3-(p-tolyl)urea]	2.75 °C		
CC(=O)Nc1cc(NC(=O)Nc2ccc(F)cc2)ccc1Cl [Compound 095, N-[2-chloro-5-[(4-fluorophenyl)carbamoylamino]phenyl]acetamide]	0.67 °C		
CC1CC(=O)Oc2cc(Oc3c([N+](=O)[O-])cc(C(F)(F)F)cc3[N+](=O)[O-])ccc21 (stereo not shown) [Compound 0042]		-6.23 °C	
O=C(Nc1ccc(F)cc1)Nc1ccc(Cl)cc1 [Compound 0096, 1-(4-chlorophenyl)-3-(4-fluorophenyl)urea]		2.61 °C	
O=C(Nc1ccc(Cl)c([N+](=O)[O-])c1)Nc1ccc(F)c(C2(C(F)(F)F)N=N2)c1 [Compound 0094, 1-(4-chloro-3-nitro-phenyl)-3-[4-fluoro-3-[3-(trifluoromethyl)diazirin-3-yl]phenyl]urea]		2.92 °C	
O=C(Nc1ccc(F)cc1)Nc1cccc([N+](=O)[O-])c1 [Compound 0076, 1-(4-fluorophenyl)-3-(3-nitrophenyl)urea]		-7.23 °C	
O=C(Nc1ccccc1)Nc1cccc(Cl)c1 [Compound 0091, 1-(3-chlorophenyl)-3-phenylurea]		2.5 °C	
CCN1C(=O)/C(=C\c2cc([N+](=O)[O-])cc(Br)c2O)SC1=S [Compound 0099]		-6.74 °C	
O=[N+]([O-])c1cc(C(F)(F)F)cc([N+](=O)[O-])c1Oc1ccc(F)cc1F [Compound 0012]		-4.73 °C	
Cc1ccc(NC(=O)Nc2cccc(C(F)(F)F)c2)cc1 [Compound 0058, 1-(p-tolyl)-3-(3-(trifluoromethyl)phenyl)urea]		2.58 °C	
O=C(Nc1ccc(Cl)cc1)Nc1cccc(Cl)c1 [Compound 066, 1-(3-chlorophenyl)-3-(4-chlorophenyl)urea]	3 °C		
O=C(Nc1ccc(Cl)cc1)Nc1cccc([N+](=O)[O-])c1 [Compound 049, 1-(4-chlorophenyl)-3-(3-nitrophenyl)urea]	3.11 °C		

Compound	ΔTm at 25 µM (Table 3)	ΔTm at 25 µM (Table 1)	further results
O=C(Nc1cccnc1)c1cc2c(s1)-c1ccccc1CC2 [Compound 0028]		-9.69 °C	
O=C(CSc1nnc(-c2ccncc2)n1-c1ccccc1)N/N=C/c1cccnc1 [Compound 0029]		-8.96 °C	
CCC(C(=O)C(C)C(O)C(C)CCc1ccc(C)c(O)c1C(=O)O)C1OC(CC)(C2CCC(O)(CC)C(C)O2)CC1C (stereo not shown) [Compound 0056]		-5.96 °C	
O=C(Nc1cc(Cl)ccc1O)c1ccccc1CSc1ccc(Cl)cc1 [Compound 0104]		3.27 °C	
Cn1ncc(S(=O)(=O)Cc2ccccc2)c(Cl)c1=O [Compound 0014]		-4.56 °C	
CCOC(=O)c1c(Cl)c2ccccc2oc1=O [Compound 0021]		-9.19 °C	
N#CN=C(Nc1ccc(F)cc1)Nc1ccc(Cl)c([N+](=O)[O-])c1 [Compound 0047, 1-(4-chloro-3-nitro-phenyl)-2-cyano-3-(4-fluorophenyl)guanidine]		0.75 °C	
N#C/C(=C(/Oc1ccc(Cl)cc1Cl)C(F)(F)F)c1ccccc1 [Compound 0107]		-4.4 °C	
CCOc1ccc(S(=O)(=O)NCc2ccccn2)c2ccccc12 [Compound 0087]		-9.24 °C	
Cc1ccc(NC(=O)Nc2cccc(C(F)(F)F)c2)cc1 [Compound 058, 1-(p-tolyl)-3-(3-(trifluoromethyl)phenyl)urea]	2.58 °C		
Cc1cc(N)c2ccccc2c1O [Compound 0039]		-4.28 °C	
Cc1cccc(NC(=O)Nc2ccc(Cl)c([N+](=O)[O-])c2)c1 [Compound 026, 1-(4-chloro-3-nitrophenyl)-3-(m-tolyl)urea]	5.75 °C		
O=C(Nc1ccc(F)cc1)Nc1ccc2nonc2c1 [Compound 0027, 1-(2,1,3-benzoxadiazol-5-yl)-3-(4-fluorophenyl)urea]		2.8 °C	
O=C(Nc1ccc(Cl)cc1)Nc1cccc(Cl)c1 [Compound 0066, 1-(3-chlorophenyl)-3-(4-chlorophenyl)urea]		3 °C	
O=C(N/N=C/c1cccnc1)c1ccc(=O)[nH]n1 [Compound 0037]		-9.74 °C	
O=C(Nc1ccc(F)c(F)c1)Nc1ccc(Cl)c(C(F)(F)F)c1 [Compound 0101, 1-(4-chloro-3-(trifluoromethyl)phenyl)-3-(3,4-difluorophenyl)urea]		3.33 °C	
CC(C)(C)CC(C)(C)c1ccc(O)c(Cc2ccc(Cl)cc2Cl)c1 [Compound 0073]		2.6 °C	
O=c1c(Nc2ccc(F)cc2)c(Nc2ccc(Cl)c(C(F)(F)F)c2)c1=O [Compound 064, 3-[4-chloro-3-(trifluoromethyl)anilino]-4-(4-fluoroanilino)cyclobut-3-ene-1,2-dione]	2.3 °C		
O=C(Nc1ccc(F)cc1)Nc1cccc(Cl)c1 [Compound 0060, 1-(3-chlorophenyl)-3-(4-fluorophenyl)urea]		2.5 °C	
